Assay results from patent US4510307A, “6-Quinazolinesulfonyl derivatives and process for preparation thereof” (Asahi Kasei Kogyo Kabushiki Kaisha, priority 1980, dated 1985).
Like-named read-outs stand apart in the source and are kept apart here.

What was measured:
[1] = system: hog cerebral cortex calmodulin or calcium-dependent cyclic nucleotide PDE; assay: PDE inhibition, calmodulin or calcium-dependent cyclic nucleotide PDE of hog cerebral cortex; format: biochemical
Description: (§1) More specifically, from the results of the experiment using an enzyme specimen in accordance with the reports [Mol. Pharmacol., 15, 49 (1979) and Biochem. Biophys. […] The 6-quinazolinesulfonyl derivatives and the pharmaceutically acceptable acid addition salts have inhibited the decomposition due to the enzyme specimens of substrate c-AMP and guanosine-3',5'-monophosphate (abbreviated "c-GMP"). This means that the compounds of this invention can inhibit the decomposition of the c-AMP and maintain the c-AMP in tissue at a high concentration. In other words, the compounds of this invention are effective for the improvement and medical treatment of a disease accompanied by reduction in the c-AMP and a disease accompanied by infiltration of calcium into tissue, for example, the contraction and convulsion of vascular smooth muscle.
(§2) As the enzyme specimens, human blood platelet and hog cerebral cortex were partially purified in accordance with reports [Mol. Pharmacol., 15, 49 (1979) and Biochem. Biophys. Res. Comun., 84, 277 (1978)]. The effect of the 6-quinazolinesulfonyl derivatives and their pharmaceutically acceptable acid addition salts of this invention on the c-AMP-decomposing PDE and the calmodulin or calcium-dependent cyclic nucleotide PDE was examined under the conditions in accordance with the above described reports. […] The activity of the compounds of this invention is expressed by the concentration which is required to inhibit 50% of the decomposition of the c-AMP-decomposing PDE, i.e., I50 by μM.
*^2 The enzyme activity was measured by using calmodulin and Ca^+
dependent specimens. The nonactivation was measured in the presence of
0.2 mM of EGTA, while the activation was measured in the presence of 0.2
mM of CaCl2 and 8 units of calmodulin.

femoral artery = assay: Effect on blood flow volume of femoral artery of dog; format: in vivo, dog of mixed breed; details: Canis lupus familiaris; 1 mg/Kg intravenous; anesthetized dog; read-out: Increased Blood Flow Volume in Femoral Artery
Method: (§3) The effect of the 6-quinazolinesulfonyl derivatives and the pharmaceutically acceptable acid addition salts of this invention on the vasodilation of the femoral and vertebral arteries can be measured by anesthetizing a dog of mixed breed weighing 8 to 15 Kg by an intravenous administration of 35 mg/Kg of pentbarbital, providing an acute type probe (a product of Nippon Koden K.K., Japan) with the femoral and vertebral arteries, administering the 6-quinazolinesulfonyl derivatives and the pharmaceutically acceptable acid addition salts to the femoral vein through a polyethylene tube inserted into the femoral vein side chain and measuring the blood flow volume with an electromagnetic flowmeter (a product of Nippon Koden K.K., Japan, "MF-27"). For example, when 1 mg/Kg of 1-[4-(N-methyl-N-cyclohexylamino)-6-quinazolinesulfonyl]-4-(2-ethoxy-2- phenylethyl)piperazine was intravenously administered, the increased blood flow volume in the femoral artery was 33% and the increased blood flow volume in the vertebral artery was 59%.
(§4) The effect on the vasodilatation of the femoral and vertebral arteries was measured by anesthetizing a dog of mixed breed weighing 8 to 15 Kg by an intravenous administration of 35 mg/Kg of pentbarbital, providing an acute type probe (a product of Nippon Koden K.K., Japan) with the femoral and vertebral arteries, administering the 6-quinazolinesulfonyl derivatives and their pharmaceutically acceptable acid addition salts to the femoral vein through a polyethylene tube inserted into the femoral vein side chain and measuring the blood flow volume with an electromagnetic blood flowmeter (a product of Nippon Koden K.K., Japan, "MF-27").

mesenteric artery = assay: Relaxation of Mesenteric Artery (isolated rabbit mesenteric artery contracted with KCl); details: Oryctolagus cuniculus, concentration for 50% relaxation, KCl 15~20 mM contraction, read-out: Relaxation of Mesenteric Artery ED50
Method: When, for example, 1-[4-(N-methyl-N-cyclohexylamino)-6-quinazolinesulfonyl]-4-(2-ethoxy-2-phenylethyl)piperazine was added and a complete relaxation was designated 100%, the concentration which could bring about a relaxation of 50%, i.e., ED50 was 0.8 μM.
After a home bred rabbit of a Japanese species weighing about 3 Kg was subjected to bloodletting, resulting in death and then to abdominal incision, the mesenteric artery was taken out, cut into helicoids of 2 mm×25 mm and suspended in a 20 ml organ bath filled with a Krebs-Henseleit solution into which a mixed gas of 95% by volume of O2 and 5% by volume of CO2 was introduced and one end of the artery was connected with an isometric transducer. When a load of 1.5 g was applied to the artery, the contraction and the relaxation of the artery was recorded as a weight on the transducer (a product of Nippon Koden K.K., Japan, "FD Pickup TB-912T"). The relaxation of the mesenteric artery was observed by adding the 6-quinazolinesulfonyl derivatives and their pharmaceutically acceptable acid addition salts to the mesenteric artery at the condition of about one half of the maxinum contraction with KCl at a KCl concentrantion of 15~20 mM. When the complete relaxation of the mesenteric artery was designated 100%, the concentration of the 6-quinazolinesulfonyl derivatives and their pharmaceutically acceptable acid addition salts which brought about a relaxation of 50% is shown in Table 6.

[2] = Acute toxicity, intravenous administration in mice; details: mouse, in vivo, male ddY-strain mice
Method: Furthermore, when the 6-quinazolinesulfonyl derivatives and the pharmaceutically acceptable acid addition salts of this invention are intravenously and arterially administered for the above described purposes, any remarkable toxicity cannot be observed.
The acute toxicity of the 6-quinazolinesulfonyl derivatives and their pharmaceutically acceptable acid addition salts was measured by giving male ddY-strain mice an intravenous administration.

vertebral artery = assay: Effect on blood flow volume of vertebral artery of dog; format: in vivo, dog of mixed breed; details: Canis lupus familiaris; 1 mg/Kg intravenous; anesthetized dog; read-out: Increased Blood Flow Volume in Vertebral Artery
Method: as §3, §4

[3] = system: human blood platelet cAMP PDE; assay: PDE inhibition, c-AMP-decomposing PDE of human blood platelet; format: biochemical; details: human blood platelet cAMP PDE specimen; read-out: PDE Inhibition I50, Human Blood Platelet (PII)
Description: as §1, §2
*^1 The human blood platelet cAMP PDE specimen was employed.

[4] = activated: 0.2 mM CaCl2 and 8 units of calmodulin, read-out: PDE Inhibition I50, Hog Cerebral Cortex (PII), Activated
[5] = non-activated: presence of 0.2 mM EGTA
[6] = non-activated: presence of 0.2 mM EGTA, read-out: PDE Inhibition I50, Hog Cerebral Cortex (PII), Non-activated

SMILES	IC50 [1, 4] [µM]	PDE Inhibition I50, Hog Cerebral Cortex (PII), Non-activated [1, 5]	change in vivo at 1 mg/kg (femoral artery) [%]	EC50 (mesenteric artery) [µM]	LD50 [2] [mg/kg]	change in vivo at 1 mg/kg (vertebral artery) [%]	IC50 [3] [µM]	IC50 [1, 6] [µM]
CCCCN(CCCC)c1ncnc2ccc(S(=O)(=O)N3CCN(CC(OCC)c4ccccc4)CC3)cc12 (stereo not drawn) [Compound (4), 1-(4-dibutylamino-6-quinazolinesulfonyl)-4-(2-ethoxy-2-phenylethyl)-piperazine]	370	not inhibited	33	1.3	135	50	950	–
CCOC(CN1CCN(S(=O)(=O)c2ccc3ncnc(N4CCCCC4)c3c2)CC1)c1ccccc1 (stereo not drawn) [Compound (6), 1-(4-piperidino-6-quinazolinesulfonyl)-4-(2-ethoxy-2-phenylethyl)-piperazine]	31	–	31	1.7	108	51	850	15
O=S(=O)(c1ccc2ncnc(N3CCCCC3)c2c1)N1CCN(CC=Cc2ccccc2)CC1 [Compound (9), 1-(4-piperidino-6-quinazolinesulfonyl)-4-cinnamylpiperazine]	20	not inhibited	24	3	133	42	700	–
CCOC(CN1CCN(S(=O)(=O)c2ccc3ncnc(N(C)C4CCCCC4)c3c2)CC1)c1ccccc1 (stereo not drawn) [Compound (19), 1-[4-(N-methyl-N-cyclohexylamino)-6-quinazolinesulfonyl]-4-(2-ethoxy-2-phenylethyl)piperazine]	4	–	33	0.8	63	59	750	4
CCOC(CN1CCN(S(=O)(=O)c2ccc3ncnc(N(C)c4ccccc4)c3c2)CC1)c1ccccc1 (stereo not drawn) [Compound (23), 1-[4-(N-methylanilino)-6-quinazolinesulfonyl]-4-(2-ethoxy-2-phenylethyl)-piperazine]	11	–	25	2.2	98	38	900	24
CCOC(CN1CCN(S(=O)(=O)c2ccc3ncnc(N(C)Cc4ccccc4)c3c2)CC1)c1ccccc1 (stereo not drawn) [Compound (25), 1-[4-(N-methyl-N-benzylamino)-6-quinazolinesulfonyl]-4-(2-ethoxy-2-phenylethyl)piperazine]	7	–	36	0.8	72	48	850	7
NCCCCNS(=O)(=O)c1ccc2ncnc(N3CCCCC3)c2c1 [Compound (31), N-(4-aminobutyl)-4-piperidino-6-quinazolinesulfonamide]	75	–	28	21	45	48	300	88
NCCCCCCNS(=O)(=O)c1ccc2ncnc(N3CCCCC3)c2c1 [Compound (32), N-(6-aminohexyl)-4-piperidino-6-quinazolinesulfonamide]	111	–	21	24	95	36	520	94
CCCCN(CCCC)c1ncnc2ccc(S(=O)(=O)NCCCCN)cc12 [Compound (37), N-(4-aminobutyl)-4-dibutylamino-6-quinazolinesulfonamide]	44	–	24	8	103	41	250	109
